Experiments:
[1] = system: reactive oxygen species (ROS) on ex vivo skin; test: DCF assay, ROS score on ex vivo skin, aqueous/alcoholic (ethanolic) test system; type: cell-based; conditions: vehicle (EtOH/H2O) plus alkanediol only
Description: A dichlorofluorescein test (DCF) assay was performed in order to determine the amount of reactive oxygen species (ROS) on ex vivo skin treated with different test samples in a lipophilic or an aqueous/alcoholic system as described below.
DCF assay—assay principle: Ex vivo skin was incubated with 2′,7′-dichlorodihydrofluorescein diacetate at 37° C., 5% CO2. After PBS washing, samples were exposed or not to cumene hydroperoxide. Immediately after exposure, ex vivo skin samples were frozen in liquid nitrogen and 5 μm cryostat sections were made and fixed with acetone to allow the visualisation of fluorescence generated by ROS in cells of the reconstructed skins. The resulting fluorescence was measured at EX/EM 504/524 nm. Green fluorescence was quantified in ex vivo skin using ImageJ software. The depth of immunostaining was measured as follows: green DCFH-DE positive cells were automatically detected using Histolab software and the distance between dermal epidermal junction and the deepest positive cells were measured in each condition. Means were compared using a student's test. […]
The image acquisition was performed by using Olympus BX51 microscope and Olympus DP70 camera. For each skin sample two skin sections have been taken and the related fluorescent images acquired and analyzed. Thus, for each test condition, 12 images have been acquired and analyzed (i.e. 12 data). […]

[2] = Sensory evaluation on the backside of the hand (spreading, fatty/greasy skin feel, absorption), untrained panellists; conditions: for Absorption/remaining residue with alkanediol: scale 1 to 5
Description: For evaluating the sensory behaviour, liquid lipophilic components specified in the following table were blended with 1,2-heptanediol or 2,3-heptanediol or a mixture of 1,2-heptanediol and 2,3-heptanediol or 1,2-octanediol or 2,3-octanediol or a mixture of 1,2-octanediol and 2,3-octanediol (formulation) in a ratio of 85:15 and assessed by untrained panellists in comparison to the liquid lipophilic component without addition of the specified alkanediols (placebo).
The test procedure was carried as follows: For evaluating the sensory behaviour of 1,2-alkanediols and/or 2,3-alkanediols in combination with different liquid lipophilic components, oil components specified in the following table were blended with a 1,2-alkanediol or a 2,3-alkanediol or a mixture including a 1,2-alkanediol and a 2,3-alkanediol in a ratio as specified in Table 53 and assessed by untrained panellists in comparison to the liquid lipophilic component without addition of the 1,2-alkanediol or 2,3-alkanediol or the mixture including a 1,2-alkanediol and 2,3-alkanediol (placebo).
Test Procedure: • Hands were pre-washed with liquid soap by following a defined procedure; 30 μl of corresponding sample was applied on the backside of each hand (randomized); • After 30 s the spreading behaviour of the respective formulation on skin was evaluated versus the respective oil component without 1,2-heptanediol on a scale from 1 to 5 (1=low spreading; 5=high spreading); • The samples were distributed with the fingertips of middle and forefinger with 2×5 cycles; • After 2 minutes, the fatty/greasy skin feel was evaluated on a scale from 1 to 5 (1=low fatty/greasy skin feel; 5=high fatty/greasy skin feel); • Furthermore the applicants were asked to assess the absorption, i.e. the impression of amount of remaining residue on the skin on a scale from 1 to 5 (1=low absorption; 5=high absorption).

human sebaceous glands = test: Sebum production of micro-dissected, cultured human sebaceous glands (lipids/proteins after six days); type: cell-based; design: sebum reduction: concentration or dose not given beside the values; conditions: compared to untreated control; six days; single donor (FIG. 4)
In short: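 Micro-dissected human sebaceous glands cultured six days in medium with alkanediols at various concentrations; plain medium as untreated control, 5 μM Capsaicin as positive control. Lipids and proteins then quantified; sebum production expressed as mg lipids/mg proteins.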

Question: With CCCCCC(O)CO (centres unmarked) [1,2-heptanediol] as the compound, how does the “antioxidative efficacy without antioxidant (in words)” value [1] read?
Answer: do not have an antioxidative efficacy

Question: What about the “Absorption/remaining residue Delta” value ([2]; blend with Argan Oil vs without) of the same compound?
Answer: 1

Question: And the “Absorption/remaining residue with alkanediol” value ([2]; blend with Argan Oil)?
Answer: 2.8

Question: What about the “Absorption/remaining residue Delta” value ([2]; blend with Avocado Oil vs without) of the same compound?
Answer: 1.2

Question: What about the “Absorption/remaining residue with alkanediol” value ([2]; blend with Avocado Oil) of the same compound?
Answer: 2.6

Question: What about the “Absorption/remaining residue Delta” value ([2]; blend with Butyrospermum Parkii (Shea) Butter vs without) of the same compound?
Answer: 1.5

Question: What about the “Absorption/remaining residue with alkanediol” value ([2]; blend with Butyrospermum Parkii (Shea) Butter) of the same compound?
Answer: 2.7

Question: And the “Absorption/remaining residue Delta” value ([2]; blend with Cacao butter vs without)?
Answer: 0

Question: And the “Absorption/remaining residue with alkanediol” value ([2]; blend with Cacao butter)?
Answer: 3.6

Question: And the “Absorption/remaining residue Delta” value ([2]; blend with Caprylic Capric Triglyceride (neutral oil), rows r50-r56, vs without)?
Answer: 0.6

Question: And the “Absorption/remaining residue with alkanediol” value ([2]; blend with Caprylic Capric Triglyceride (neutral oil), rows r50-r56)?
Answer: 2.7

Question: What about the “Absorption/remaining residue Delta” value ([2]; blend with Castor Oil vs without) of the same compound?
Answer: 0.4

Question: What about the “Absorption/remaining residue with alkanediol” value ([2]; blend with Castor Oil) of the same compound?
Answer: 4

Question: What about the “Absorption/remaining residue Delta” value ([2]; blend with Cetearyl Nonanoate (SymMollient S), row r161, vs without) of the same compound?
Answer: 1.2

Question: And the “Absorption/remaining residue with alkanediol” value ([2]; blend with Cetearyl Nonanoate (SymMollient S), row r161)?
Answer: 2

Question: What about the “Absorption/remaining residue Delta” value ([2]; blend with Cetearyl Nonanoate, rows r199-r201, vs without) of the same compound?
Answer: 1.6

Question: What about the “Absorption/remaining residue with alkanediol” value ([2]; blend with Cetearyl Nonanoate, rows r199-r201) of the same compound?
Answer: 3.2

Question: What about the “Absorption/remaining residue Delta” value ([2]; blend with Chlorella oil (biotech) vs without) of the same compound?
Answer: 0.2

Question: And the “Absorption/remaining residue with alkanediol” value ([2]; blend with Chlorella oil (biotech))?
Answer: 3

Question: And the “Absorption/remaining residue Delta” value ([2]; blend with Coconut Oil vs without)?
Answer: 1.4

Question: What about the “Absorption/remaining residue with alkanediol” value ([2]; blend with Coconut Oil) of the same compound?
Answer: 2

Question: And the “Absorption/remaining residue Delta” value ([2]; blend with Ethylhexyl Methoxycinnamate (Neo Heliopan AV) vs without)?
Answer: 0.5

Question: And the “Absorption/remaining residue with alkanediol” value ([2]; blend with Ethylhexyl Methoxycinnamate (Neo Heliopan AV))?
Answer: 3

Question: What about the “Absorption/remaining residue Delta” value ([2]; blend with Ethylhexyl Salicylate (Neo Heliopan OS) vs without) of the same compound?
Answer: 1.3

Question: And the “Absorption/remaining residue with alkanediol” value ([2]; blend with Ethylhexyl Salicylate (Neo Heliopan OS))?
Answer: 2.2

Question: What about the “Absorption/remaining residue Delta” value ([2]; blend with Grapeseed Oil vs without) of the same compound?
Answer: 0.2

Question: And the “Absorption/remaining residue with alkanediol” value ([2]; blend with Grapeseed Oil)?
Answer: 2.8

Question: And the “Absorption/remaining residue Delta” value ([2]; blend with Helianthus Annuus (Sunflower) Seed Oil vs without)?
Answer: 1.3

Question: What about the “Absorption/remaining residue with alkanediol” value ([2]; blend with Helianthus Annuus (Sunflower) Seed Oil) of the same compound?
Answer: 2

Question: What about the “Absorption/remaining residue Delta” value ([2]; blend with Hexyldecanol (Eutanol G) vs without) of the same compound?
Answer: 0.2

Question: What about the “Absorption/remaining residue with alkanediol” value ([2]; blend with Hexyldecanol (Eutanol G)) of the same compound?
Answer: 2.7

Question: And the “Absorption/remaining residue Delta” value ([2]; blend with Homosalate (Neo Heliopan HMS) vs without)?
Answer: 0.3

Question: And the “Absorption/remaining residue with alkanediol” value ([2]; blend with Homosalate (Neo Heliopan HMS))?
Answer: 2.5

Question: What about the “Absorption/remaining residue Delta” value ([2]; blend with Isoamyl p-Methoxycinnamate (Neo Heliopan E 1000) vs without) of the same compound?
Answer: 1.7

Question: And the “Absorption/remaining residue with alkanediol” value ([2]; blend with Isoamyl p-Methoxycinnamate (Neo Heliopan E 1000))?
Answer: 2.5

Question: And the “Absorption/remaining residue Delta” value ([2]; blend with Microalgae oil vs without)?
Answer: 1.2

Question: What about the “Absorption/remaining residue with alkanediol” value ([2]; blend with Microalgae oil) of the same compound?
Answer: 2.5

Question: What about the “Absorption/remaining residue Delta” value ([2]; blend with Octocrylene (Neo Heliopan 303), row r184 (UV filter), vs without) of the same compound?
Answer: 1.3

Question: And the “Absorption/remaining residue with alkanediol” value ([2]; blend with Octocrylene (Neo Heliopan 303), row r184 (UV filter))?
Answer: 2.7

Question: What about the “Absorption/remaining residue Delta” value ([2]; blend with Octocrylene (Neo Heliopan 303), vs without) of the same compound?
Answer: 0.5

Question: And the “Absorption/remaining residue with alkanediol” value ([2]; blend with Octocrylene (Neo Heliopan 303))?
Answer: 3.5

Question: What about the “Absorption/remaining residue Delta” value ([2]; blend with Olive Oil vs without) of the same compound?
Answer: 1.6

Question: And the “Absorption/remaining residue with alkanediol” value ([2]; blend with Olive Oil)?
Answer: 2.4

Question: What about the “Absorption/remaining residue Delta” value ([2]; blend with Propanediol Dicaprylate/Dicaprate (Symollient PDCC) vs without) of the same compound?
Answer: 0.1

Question: What about the “Absorption/remaining residue with alkanediol” value ([2]; blend with Propanediol Dicaprylate/Dicaprate (Symollient PDCC)) of the same compound?
Answer: 2.4

Question: And the “Absorption/remaining residue Delta” value ([2]; blend with Prunus Amygdalus Dulcis (Sweet Almond) Oil vs without)?
Answer: 1.5

Question: What about the “Absorption/remaining residue with alkanediol” value ([2]; blend with Prunus Amygdalus Dulcis (Sweet Almond) Oil) of the same compound?
Answer: 2.2

Question: What about the “Absorption/remaining residue Delta” value ([2]; blend with Simmondsia Chinensis (Jojoba) Seed Oil vs without) of the same compound?
Answer: 1.2

Question: And the “Absorption/remaining residue with alkanediol” value ([2]; blend with Simmondsia Chinensis (Jojoba) Seed Oil)?
Answer: 2.5

Question: And the sebum reduction (human sebaceous glands)?
Answer: 22%

From US20230248626A1, “Compositions Comprising (Bio)-Alkanediols” (Symrise AG, priority 0001, published 2023)
